From the NIST ThermoML archive (doi:10.1021/acs.jced.9b00420)
± gives the expanded uncertainty stated by the source.

Settings: Liquid; for mass density: Vibrating tube method; for speed of sound: Light diffraction method

CCCCCCCCC(=O)OCC [ethyl nonanoate]
Settings	mass density [kg/m3]	speed of sound [m/s]
293.15 K, 100 kPa	865.02 ± 0.39	–
295.24 K, 10000 kPa	–	1348.5 ± 46
295.29 K, 7000 kPa	–	1342.4 ± 46
295.35 K, 5000 kPa	–	1336.6 ± 46
295.41 K, 3000 kPa	–	1327.1 ± 45
295.53 K, 1000 kPa	–	1318.3 ± 44
295.67 K, 100 kPa	–	1303.3 ± 43
298.15 K, 100 kPa	860.89 ± 0.39	–
303.15 K, 100 kPa	856.75 ± 0.38	–
303.18 K, 10000 kPa	–	1318 ± 44
303.22 K, 3000 kPa	–	1296.2 ± 43
303.26 K, 1000 kPa	–	1278.4 ± 42
303.3 K, 7000 kPa	–	1307 ± 43
303.41 K, 5000 kPa	–	1298 ± 43
303.48 K, 100 kPa	–	1273.9 ± 42
313.08 K, 10000 kPa	–	1283.3 ± 42
313.14 K, 1000 kPa	–	1242.7 ± 40
313.15 K, 100 kPa	848.43 ± 0.38	–
313.45 K, 7000 kPa	–	1266 ± 42
313.56 K, 3000 kPa	–	1252.4 ± 40
313.77 K, 100 kPa	–	1224.9 ± 39
314.03 K, 5000 kPa	–	1262.6 ± 40
322.95 K, 7000 kPa	–	1231.4 ± 39
323.15 K, 100 kPa	840.09 ± 0.38	–
323.39 K, 10000 kPa	–	1246.8 ± 40
323.64 K, 5000 kPa	–	1215.5 ± 39
323.68 K, 100 kPa	–	1183.3 ± 37
324.78 K, 3000 kPa	–	1204.3 ± 39
324.85 K, 1000 kPa	–	1195.5 ± 37
332.89 K, 10000 kPa	–	1208.8 ± 39
332.93 K, 3000 kPa	–	1175.1 ± 36
333.15 K, 100 kPa	831.73 ± 0.38	–
333.21 K, 1000 kPa	–	1163.1 ± 36
334.21 K, 5000 kPa	–	1185 ± 37
334.21 K, 7000 kPa	–	1191.7 ± 37
334.94 K, 100 kPa	–	1142.9 ± 36
342.88 K, 3000 kPa	–	1137.2 ± 35
343.1 K, 10000 kPa	–	1170.1 ± 36
343.12 K, 5000 kPa	–	1153.6 ± 36
343.15 K, 100 kPa	823.33 ± 0.38	–
343.24 K, 1000 kPa	–	1123.8 ± 34
343.31 K, 7000 kPa	–	1157.3 ± 36
343.51 K, 100 kPa	–	1107.8 ± 33
351.94 K, 3000 kPa	–	1098.9 ± 33
352.22 K, 1000 kPa	–	1085.5 ± 33
352.39 K, 10000 kPa	–	1135 ± 34
353.15 K, 100 kPa	814.88 ± 0.38	–
353.27 K, 5000 kPa	–	1106.1 ± 33
353.32 K, 7000 kPa	–	1114.4 ± 34
354.18 K, 100 kPa	–	1065.4 ± 31
361.97 K, 5000 kPa	–	1078.7 ± 32
362.59 K, 7000 kPa	–	1085.6 ± 33
362.97 K, 3000 kPa	–	1063.9 ± 31
363 K, 10000 kPa	–	1106.9 ± 33
363.3 K, 1000 kPa	–	1046 ± 30
364.18 K, 100 kPa	–	1028.8 ± 30
371.77 K, 5000 kPa	–	1046.8 ± 30
371.91 K, 1000 kPa	–	1012.3 ± 29
371.99 K, 100 kPa	–	1003 ± 29
372.73 K, 3000 kPa	–	1024.3 ± 30
373.24 K, 10000 kPa	–	1068.4 ± 32
373.26 K, 7000 kPa	–	1045.8 ± 30
381.51 K, 5000 kPa	–	1011.2 ± 29
381.89 K, 100 kPa	–	965.2 ± 27
381.96 K, 3000 kPa	–	995.2 ± 28
383.17 K, 10000 kPa	–	1037.3 ± 30
383.69 K, 7000 kPa	–	1011.5 ± 29
384.3 K, 1000 kPa	–	971.3 ± 27
391.7 K, 5000 kPa	–	974.2 ± 27
391.74 K, 7000 kPa	–	985.8 ± 28
391.74 K, 10000 kPa	–	1009.8 ± 29
391.75 K, 1000 kPa	–	939.5 ± 26
391.81 K, 3000 kPa	–	961.1 ± 27
391.89 K, 100 kPa	–	932.1 ± 26
403.31 K, 1000 kPa	–	902.3 ± 24
403.36 K, 7000 kPa	–	943.9 ± 26
403.46 K, 3000 kPa	–	921.8 ± 25
403.47 K, 10000 kPa	–	968.6 ± 27
403.82 K, 5000 kPa	–	929.8 ± 26
405.01 K, 100 kPa	–	884 ± 24
412.73 K, 3000 kPa	–	893.7 ± 24
412.73 K, 10000 kPa	–	936.6 ± 26
412.81 K, 7000 kPa	–	917.8 ± 25
412.98 K, 1000 kPa	–	870.1 ± 24
413.05 K, 5000 kPa	–	904.2 ± 24
413.84 K, 100 kPa	–	861.2 ± 23
421.5 K, 5000 kPa	–	875.4 ± 24
421.83 K, 1000 kPa	–	842.1 ± 22
421.98 K, 10000 kPa	–	916 ± 25
422 K, 7000 kPa	–	891 ± 24
422.02 K, 3000 kPa	–	862.5 ± 23
422.07 K, 100 kPa	–	827.6 ± 22
431.53 K, 1000 kPa	–	808.9 ± 21
431.84 K, 5000 kPa	–	850.9 ± 22
431.86 K, 10000 kPa	–	888.7 ± 24
431.88 K, 7000 kPa	–	861.7 ± 23
432.05 K, 3000 kPa	–	827.6 ± 22
432.93 K, 100 kPa	–	797.1 ± 21
442.94 K, 1000 kPa	–	779.7 ± 20
443 K, 7000 kPa	–	835.6 ± 22
443.02 K, 10000 kPa	–	860.3 ± 23
443.11 K, 3000 kPa	–	796.4 ± 21
443.15 K, 5000 kPa	–	814.1 ± 21
443.7 K, 100 kPa	–	767.3 ± 19
452.5 K, 1000 kPa	–	750.6 ± 19
452.64 K, 7000 kPa	–	805 ± 21
452.65 K, 5000 kPa	–	786.9 ± 20
452.68 K, 10000 kPa	–	835.1 ± 22
452.83 K, 100 kPa	–	739.6 ± 19
452.88 K, 3000 kPa	–	771.1 ± 19
462.31 K, 3000 kPa	–	743.5 ± 19
462.34 K, 7000 kPa	–	783.1 ± 20
462.43 K, 10000 kPa	–	804.8 ± 21
462.49 K, 5000 kPa	–	763 ± 19
462.68 K, 1000 kPa	–	720.1 ± 18
464.19 K, 100 kPa	–	703.5 ± 18
471.8 K, 3000 kPa	–	718.5 ± 18
471.86 K, 5000 kPa	–	737.7 ± 18
471.86 K, 7000 kPa	–	756.6 ± 19
471.87 K, 1000 kPa	–	693.4 ± 17
471.88 K, 100 kPa	–	683 ± 16
471.95 K, 10000 kPa	–	783.4 ± 20
482.55 K, 1000 kPa	–	665.4 ± 16
482.56 K, 3000 kPa	–	691.9 ± 17
482.58 K, 7000 kPa	–	727.2 ± 18
482.62 K, 5000 kPa	–	709.2 ± 18
482.62 K, 10000 kPa	–	759.9 ± 19
482.75 K, 100 kPa	–	652.6 ± 16
492.48 K, 10000 kPa	–	735.7 ± 18
492.57 K, 3000 kPa	–	660.7 ± 16
492.66 K, 7000 kPa	–	704.9 ± 18
492.67 K, 5000 kPa	–	681.7 ± 16
493 K, 1000 kPa	–	637.4 ± 15
502.65 K, 3000 kPa	–	635.1 ± 15
502.91 K, 7000 kPa	–	681.8 ± 16
502.95 K, 1000 kPa	–	607.9 ± 15
503.08 K, 10000 kPa	–	709.9 ± 18
503.42 K, 5000 kPa	–	655.5 ± 16
512.78 K, 7000 kPa	–	655 ± 16
512.8 K, 10000 kPa	–	689.4 ± 17
512.83 K, 3000 kPa	–	609.6 ± 15
512.9 K, 5000 kPa	–	633.5 ± 15
513.2 K, 1000 kPa	–	581.3 ± 14
522.13 K, 1000 kPa	–	555.5 ± 13
522.19 K, 7000 kPa	–	631.9 ± 15
522.31 K, 3000 kPa	–	583.9 ± 14
522.36 K, 5000 kPa	–	609.3 ± 15
522.38 K, 10000 kPa	–	662 ± 16
533.35 K, 1000 kPa	–	519.4 ± 12
533.43 K, 7000 kPa	–	605.6 ± 15
533.52 K, 10000 kPa	–	637 ± 15
533.6 K, 3000 kPa	–	552.1 ± 13
533.69 K, 5000 kPa	–	581.4 ± 14
542.72 K, 3000 kPa	–	528.8 ± 12
542.76 K, 10000 kPa	–	619.6 ± 15
542.79 K, 7000 kPa	–	583 ± 14
542.91 K, 5000 kPa	–	553.5 ± 13
543.62 K, 1000 kPa	–	491 ± 11
552.52 K, 3000 kPa	–	500.5 ± 12
552.61 K, 7000 kPa	–	558.1 ± 13
552.71 K, 1000 kPa	–	458.7 ± 10
552.72 K, 5000 kPa	–	527.6 ± 12
552.76 K, 10000 kPa	–	596.5 ± 14
562.08 K, 1000 kPa	–	428.6 ± 9.6
562.32 K, 5000 kPa	–	499.9 ± 12
562.4 K, 7000 kPa	–	532 ± 12
562.45 K, 10000 kPa	–	574.7 ± 13
562.48 K, 3000 kPa	–	468.4 ± 10
571.78 K, 3000 kPa	–	435.9 ± 9.7
571.96 K, 1000 kPa	–	387.2 ± 8.7
572.13 K, 7000 kPa	–	504.6 ± 12
572.32 K, 10000 kPa	–	549 ± 13
572.37 K, 5000 kPa	–	472 ± 10
582.01 K, 5000 kPa	–	439.9 ± 9.8
582.26 K, 7000 kPa	–	473.6 ± 10
582.35 K, 10000 kPa	–	525.5 ± 12
582.39 K, 3000 kPa	–	393.3 ± 8.8
591.81 K, 3000 kPa	–	351.2 ± 7.6
592.38 K, 5000 kPa	–	398.5 ± 8.9
592.79 K, 7000 kPa	–	438.3 ± 9.8
593.15 K, 10000 kPa	–	495.3 ± 11
